Measured values as given in patent US20200060276A1, “THIAZOLE COMPOUND AND HERBICIDE” (OAT Agrio Co., Ltd., priority 2017, published 2020).

Columns and labels:
Type in all cases: in vivo
[1] = system: Monochoria vaginalis; test: Test for Herbicidal Effect in Flooding Treatment (#1), MONVA; details: flooding treatment at seeding, dose 2 kg/ha, visual observation on day 21
Summary of the method: (§1)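 Flooded soil in cups was seeded 24 h after flooding, then treated with compound in acetone diluted with Tween 80-containing water, dropped onto the water surface at 2 kg/ha. After growth in a glasshouse, growth inhibition was scored visually on day 21 on a 0 (<10%) to 5 (≥90% or complete withering) scale.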

[2] = system: Echinochloa crus-galli (L.) P. Beauv. var. formosensis Ohwi; test: Test for Herbicidal Effect in Flooding Treatment (#2), ECHDG at 2-2.5 leaf stage; details: for ECHDG (2-2.5L) #2 herbicidal effect (growth inhibition grade): flooding treatment at 2-2.5 leaf stage, dose 0.2 kg/ha, visual observation on day 21; for inhibition at 200 g/ha: Echinochloa crus-galli, 504 h, flooding treatment (#2), ECHDG at 2-2.5 leaf stage, dose of 0.2 kg/ha, day 21, visual observation, read-out: growth inhibition effect
Summary of the method: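 Scoring is a visual 0–5 scale of growth inhibition (0 below 10%, 5 at 90% or more or full withering), taken 21 days after treatment in a glasshouse. Dose was 0.2 kg/ha, applied as acetone/Tween 80 aqueous solution onto flooded soil once seedlings reached the 2–2.5 leaf stage.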

[3] = system: Scirpus juncoides; test: Test for Herbicidal Effect in Flooding Treatment (#1), SCIJU; details: flooding treatment at seeding, dose 2 kg/ha, visual observation on day 21
Summary of the method: as §1

[4] = system: Echinochloa crus-galli (L.) P. Beauv. var. formosensis Ohwi; test: Test for Herbicidal Effect in Flooding Treatment (#1), ECHDG; details: flooding treatment at seeding, dose 2 kg/ha, visual observation on day 21
Summary of the method: as §1

[5] = system: Cyperus microiria; test: Test for Herbicidal Effect in Flooding Treatment (#1), CYMIC; details: flooding treatment at seeding, dose 2 kg/ha, visual observation on day 21
Summary of the method: as §1

[6] = system: Digitaria ciliaris; test: Test for Herbicidal Effect in Soil Treatment (#3); details: 504 h, dose of 2 kg/ha, day 21, visual observation, read-out: growth inhibition effect
From the text: 0: Growth inhibition effect is less than 10%. 1: Growth inhibition effect is equal to or greater than 10%, and less than 30%. 2; Growth inhibition effect is equal to or greater than 30%, and less than 50%. 3: Growth inhibition effect equal to or greater than 50%, and less than 70%. 4: Growth inhibition effect is equal to or greater than 70%, and less than 90%. 5: Growth inhibition effect is equal to or greater than 90%, or complete withering is achieved. (#3) Test for Herbicidal Effect in Soil Treatment: Styrol cups each having an opening diameter of 8 cm (about 52 cm^2) were respectively filled with soil (45 ml) which had been passed through a sieve (2 mm). Water (about 115 ml) was added. Thereafter, Digitaria ciliaris was seeded. Each of the compounds of the present invention was dissolved in acetone, and the obtained product was then diluted with water containing Tween 80°. Each of the resultant chemical solutions was dropped on the entire surface of an associated one of treatment sections, so that each section was treated with 1 ml of the respective chemical solution (a dose of 2 kg/ha). After the treatment, the plants were grown in a glasshouse. On day 21, a survey was conducted on the herbicidal activity by visual observation, and evaluation was made according to the following criteria. The herbicidal activity of the following comparative compounds A and B (the compounds disclosed Japanese Unexamined Patent Publication No. 2003-096059) were evaluated.

Row | SMILES | MONVA #1 herbicidal effect (growth inhibition grade) [1] | ECHDG (2-2.5L) #2 herbicidal effect (growth inhibition grade) [2] | SCIJU #1 herbicidal effect (growth inhibition grade) [3] | ECHDG #1 herbicidal effect (growth inhibition grade) [4] | CYMIC #1 herbicidal effect (growth inhibition grade) [5] | inhibition at 2000 g/ha [6] [%] | inhibition at 200 g/ha [2] [%]
1 | CCOc1ccc(CS(=O)(=O)c2ncc(Cl)s2)c(C)c1 [Compound 1C-93] | 5 (Growth inhibition effect is equal to or greater than 90%, or complete withering is achieved) | 5 (Growth inhibition effect is equal to or greater than 90%, or complete withering is achieved) | 5 (Growth inhibition effect is equal to or greater than 90%, or complete withering is achieved) | 5 (Growth inhibition effect is equal to or greater than 90%, or complete withering is achieved) | 5 (Growth inhibition effect is equal to or greater than 90%, or complete withering is achieved) |  | 
2 | CCOc1ccc(CS(=O)(=O)c2ncc(Cl)s2)c(C(F)(F)F)c1 [Compound 1C-94] | 5 (Growth inhibition effect is equal to or greater than 90%, or complete withering is achieved) | 5 (Growth inhibition effect is equal to or greater than 90%, or complete withering is achieved) | 5 (Growth inhibition effect is equal to or greater than 90%, or complete withering is achieved) | 5 (Growth inhibition effect is equal to or greater than 90%, or complete withering is achieved) | 5 (Growth inhibition effect is equal to or greater than 90%, or complete withering is achieved) |  | 
3 | CCOc1ccc(CS(=O)(=O)c2ncc(Cl)s2)cc1C(F)(F)F [Compound 1C-98] | 5 (Growth inhibition effect is equal to or greater than 90%, or complete withering is achieved) | 1 (Growth inhibition effect is equal to or greater than 10%, and less than 30%) | 5 (Growth inhibition effect is equal to or greater than 90%, or complete withering is achieved) | 5 (Growth inhibition effect is equal to or greater than 90%, or complete withering is achieved) | 5 (Growth inhibition effect is equal to or greater than 90%, or complete withering is achieved) |  | 
4 | CCOc1ccc(CS(=O)(=O)c2ncc(Cl)s2)c(F)c1F [Compound 1C-99] | 5 (Growth inhibition effect is equal to or greater than 90%, or complete withering is achieved) | 5 (Growth inhibition effect is equal to or greater than 90%, or complete withering is achieved) | 5 (Growth inhibition effect is equal to or greater than 90%, or complete withering is achieved) | 5 (Growth inhibition effect is equal to or greater than 90%, or complete withering is achieved) | 5 (Growth inhibition effect is equal to or greater than 90%, or complete withering is achieved) |  | 
5 | CCOc1ccc(CS(=O)(=O)c2ncc(Cl)s2)c(Cl)c1Cl [Compound 1C-100] | 5 (Growth inhibition effect is equal to or greater than 90%, or complete withering is achieved) | 5 (Growth inhibition effect is equal to or greater than 90%, or complete withering is achieved) | 5 (Growth inhibition effect is equal to or greater than 90%, or complete withering is achieved) | 5 (Growth inhibition effect is equal to or greater than 90%, or complete withering is achieved) | 5 (Growth inhibition effect is equal to or greater than 90%, or complete withering is achieved) |  | 
6 | CCOc1c(F)cc(CS(=O)(=O)c2ncc(Cl)s2)cc1F [Compound 1C-104] | 5 (Growth inhibition effect is equal to or greater than 90%, or complete withering is achieved) | 1 (Growth inhibition effect is equal to or greater than 10%, and less than 30%) | 5 (Growth inhibition effect is equal to or greater than 90%, or complete withering is achieved) | 5 (Growth inhibition effect is equal to or greater than 90%, or complete withering is achieved) | 5 (Growth inhibition effect is equal to or greater than 90%, or complete withering is achieved) |  | 
7 | CCOc1c(F)cc(CS(=O)(=O)c2ncc(Cl)s2)cc1Cl [Compound 1C-105] | 5 (Growth inhibition effect is equal to or greater than 90%, or complete withering is achieved) | 2 (Growth inhibition effect is equal to or greater than 30%, and less than 50%) | 5 (Growth inhibition effect is equal to or greater than 90%, or complete withering is achieved) | 5 (Growth inhibition effect is equal to or greater than 90%, or complete withering is achieved) | 5 (Growth inhibition effect is equal to or greater than 90%, or complete withering is achieved) |  | 
8 | CCCOc1cc(Cl)c(CS(=O)(=O)c2ncc(Cl)s2)c(Cl)c1 [Compound 1C-110] | 5 (Growth inhibition effect is equal to or greater than 90%, or complete withering is achieved) | 5 (Growth inhibition effect is equal to or greater than 90%, or complete withering is achieved) | 5 (Growth inhibition effect is equal to or greater than 90%, or complete withering is achieved) | 5 (Growth inhibition effect is equal to or greater than 90%, or complete withering is achieved) | 5 (Growth inhibition effect is equal to or greater than 90%, or complete withering is achieved) |  | 
9 | O=S(=O)(Cc1c(F)cc(OCCC(F)(F)F)cc1F)c1ncc(Cl)s1 [Compound 1C-117] | 5 (Growth inhibition effect is equal to or greater than 90%, or complete withering is achieved) | 4 (Growth inhibition effect is equal to or greater than 70%, and less than 90%) | 5 (Growth inhibition effect is equal to or greater than 90%, or complete withering is achieved) | 5 (Growth inhibition effect is equal to or greater than 90%, or complete withering is achieved) | 5 (Growth inhibition effect is equal to or greater than 90%, or complete withering is achieved) |  | 
10 | COCOc1cc(Cl)c(CS(=O)(=O)c2ncc(Cl)s2)c(Cl)c1 [Compound 1C-119] | 5 (Growth inhibition effect is equal to or greater than 90%, or complete withering is achieved) | 4 (Growth inhibition effect is equal to or greater than 70%, and less than 90%) | 5 (Growth inhibition effect is equal to or greater than 90%, or complete withering is achieved) | 5 (Growth inhibition effect is equal to or greater than 90%, or complete withering is achieved) | 5 (Growth inhibition effect is equal to or greater than 90%, or complete withering is achieved) |  | 
11 | O=S(=O)(Cc1c(Cl)cccc1OCC(F)(F)F)c1ncc(Br)s1 [Compound 1C-161, 5-bromo-2-{[2-(2,2,2-trifluoroethoxy)-6-chlorophenyl][methanesulfonyl]}-1,3-thiazole] |  | 5 (Growth inhibition effect is equal to or greater than 90%, or complete withering is achieved) | 5 (Growth inhibition effect is equal to or greater than 90%, or complete withering is achieved) | 5 (Growth inhibition effect is equal to or greater than 90%, or complete withering is achieved) |  | ≥ 50 | 
12 | O=S(=O)(Cc1ccccc1F)c1ncc(Cl)s1 [comparative compound A, reference compound] |  |  |  |  |  | 30 to 50 | 10 to 30
13 | O=S(=O)(Cc1ccccc1Cl)c1ncc(Cl)s1 [comparative compound B, reference compound] |  |  |  |  |  | 30 to 50 | 30 to 50
